Results taken from US20020058696A1, “Chelate compound-containing antibacterial agent for helicobacter pylori” (DIRECTOR OF NTL. INST. OF AGROBIOLOGICAL RESOURCES , …, priority 2000, published 2002).

Key:
[1] = FAO/WHO Codex Alimentarius Commission, 1973; cited from earlier work
[2] = system: Helicobacter pylori ATCC 43504 strain
Description: Helicobacter pylori (ATCC 43504 strain, purchased from American Type Culture Collection) was cultured with use of a 96-well plate. […] After inoculation of Helicobacter pylori, the plate was introduced in a sealed vessel of 2.5 liter volume, into which Anaero Pack-Helico (made by Mitsubishi Gas Chemical), an agent for absorbing oxygen and generating carbon dioxide gas, was also introduced, and cultured for 5 days under an anaerobic condition at 37° C.
Growth of Helicobacter pylori was determined by means of a 96-well plate reader with use of a 540 nm or 595 nm filter. Herein, as a control for absorbance determination, a medium without EDTA was used.

| SMILES | acceptable daily intake (ADI) as a food additive [1] | concentration at which growth of Helicobacter pylori is inhibited ([2]; ATCC 43504 strain, medium pH 8.0, cultured 5 days at 37° C under anaerobic condition, turbidity at 540 nm or 595 nm against control medium, from FIG. 1 / FIG. 2) | amount to be taken to inhibit growth of Helicobacter pylori ([2]; calculated for a human stomach volume of about 1.5 L, amount of the salt) | amount to be taken to inhibit growth of Helicobacter pylori, as free EDTA ([2]; calculated for a human stomach volume of about 1.5 L, expressed as free EDTA) | growth-inhibiting concentration converted into ([2]; conversion of 0.025-1 mM using molecular weight 372Da) |
| --- | --- | --- | --- | --- | --- |
| O=C(O)CN(CCN(CC(=O)O)CC(=O)O)CC(=O)O [EDTA, Ethylenediaminetetraacetic acid] | 2.5 mg/kg of weight | – | – | – | – |
| O=C([O-])CN(CCN(CC(=O)O)CC(=O)O)CC(=O)[O-].[Na+].[Na+] [disodium ethylenediaminetetraacetate] | – | 0.025 to 1 mM | 14 to 558 mg | 11 to 438 mg | 9.3 to 372 mg/L |
